“And” between values parts separate entries of the source, which are not always exact repeats. Identical values can stand only once.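 How tested: cells in 96-well plates exposed to compound for 48 hours at five concentrations. Abbreviation: GI50, concentration required for 50% inhibition of growth. TGI is the concentration that stops growth completely.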
Columns and labels:
Assay in all cases: NCI tumour cell line growth inhibition, 48 h
PC-3 prostate = tested on: PC-3 prostate
DU-145 prostate = tested on: DU-145 prostate
DMS 273 small cell lung = tested on: DMS 273 small cell lung
DLD-1 colon = tested on: DLD-1 colon
MDA-N = tested on: MDA-N
HOP-18 NSCLC = tested on: HOP-18 NSCLC
RXF-631 renal = tested on: RXF-631 renal
SNB-78 CNS = tested on: SNB-78 CNS
XF 498 CNS = tested on: XF 498 CNS

Compound | GI50 (PC-3 prostate) | TGI (PC-3 prostate) | GI50 (DU-145 prostate) | TGI (DU-145 prostate) | TGI (DLD-1 colon) [µM] | also measured
COC(=O)/C(C#N)=C\N1CCN(C(=O)c2ccco2)C1=S | 6.82 µM | 63.4 µM | 3.54 µM | 14 µM | – | –
COc1ccc2c(c1)C(=O)c1c-2n(CCCN=[N+]=[N-])c(=O)c2ccccc12 | 51.4 µM | > 100 µM | 61.5 µM | > 100 µM | – | –
C/C(=N/O)C1CC=C(S(=O)(=O)c2ccccc2)C1 (configuration not stated) | – | – | – | – | > 100 | TGI (DMS 273 small cell lung): > 100 µM
C=CCC(C(=O)OC)C1(C(=O)OC)c2[nH]c3ccccc3c2CCN1Cc1ccccc1 (configuration not stated) | – | – | – | – | > 100 | –
Oc1nc(NCCc2ccccc2)sc1/C=C1\C=Nc2ncccc21 | 3.27 µM and 3.87 µM | 12.2 µM and 19 µM | 2.96 µM and 3.09 µM | 12.8 µM and 16.5 µM | – | –
CC(C)=CC/C=C(/C)[C@H]1CC[C@]2(C)[C@@H]1CC[C@@H]1[C@@]3(C)CCC(=O)NC(C)(C)[C@@H]3CC[C@]12C | 7.49 µM | 23.9 µM | 16.9 µM | 31.7 µM | – | –
CCOc1ccc(Cc2nccc3cc(OCC)c(OCC)cc23)cc1OCC | 4.41 µM | 33.4 µM | 12.9 µM | 31.8 µM | – | –
COc1cc2c(cc1OC)C(CCc1ccc(Cl)cc1)N(C)CC2 (configuration not stated) | 20.1 µM | > 100 µM | 51.9 µM | > 100 µM | – | –
CC1=C(N2CC2)C(=O)C(CO)=C(N2CC2)C1=O | 0.0159 µM and < 0.0213 µM | 0.0791 µM | – | 1.3 µM | – | GI50 (MDA-N): 0.0284 µM and 0.0259 µM; TGI (MDA-N): 0.138 µM and 0.106 µM
CCC(=O)C1=C(OC(C)=O)C2Cc3c(n(C)c4ccccc34)C(C1)N2C (configuration not stated) | – | – | – | – | 74.5 | TGI (DMS 273 small cell lung): 41.7 µM; TGI (HOP-18 NSCLC): > 100 µM; TGI (RXF-631 renal): 67.2 µM; TGI (SNB-78 CNS): 56.4 µM
Cn1cc(-c2csc(-c3c[nH]c4ncccc34)n2)c2cc(Br)cnc21 | 4.35 µM | > 100 µM | 3.51 µM | > 100 µM | – | –
COc1ccc(/C=C/c2cc(OC)c(O[Si](C)(C)C(C)(C)C)c(OC)c2)cc1 | – | – | – | – | > 100 | TGI (DMS 273 small cell lung): > 100 µM; TGI (XF 498 CNS): > 100 µM; TGI (RXF-631 renal): > 100 µM
Nc1nc(-c2ccccc2)c(-c2ccccc2)c(-c2nc(N)nc(-c3ccccc3)c2-c2ccccc2)n1 | – | > 100 µM | – | > 100 µM | – | TGI (MDA-N): > 100 µM
COC1=C(OC)C(=O)C(/C=C(\C)C(=O)O)=C(C)C1=O | > 100 µM | > 100 µM | > 100 µM | > 100 µM | – | –
CC(=O)NNc1nc(C)c(C(=O)NNC(=O)C(=O)Nc2ccc(C)c(C)c2)s1 | – | – | – | – | > 100 | TGI (DMS 273 small cell lung): > 100 µM; TGI (HOP-18 NSCLC): > 100 µM; TGI (SNB-78 CNS): > 100 µM
C/C(=N\NC(=O)CC(=O)Nc1ccc(C)cc1)c1cc2ccccc2oc1=O | – | – | – | – | > 100 | TGI (DMS 273 small cell lung): > 100 µM; TGI (XF 498 CNS): > 100 µM; TGI (HOP-18 NSCLC): > 100 µM
COc1ccc(/C=C2\N=C(c3ccccc3)OC2=O)c(OCc2ccccc2)c1 | – | – | – | – | 77.2 | TGI (DMS 273 small cell lung): > 100 µM; TGI (HOP-18 NSCLC): > 100 µM
c1cncc(CNc2ccccc2-c2nnc(Nc3ccc4c(c3)OCO4)o2)c1 | 0.0898 µM | > 76.9 µM | 0.197 µM | > 100 µM | – | –
C=C1CC[C@@H]2C(C)(C)[C@@H](O)CC[C@@]2(C)[C@@H]1COc1ccc2ccc(=O)oc2c1 | 5.71 µM | 21.8 µM | 17.3 µM | 48.2 µM | – | –

Compound | GI50 (PC-3 prostate) | TGI (PC-3 prostate) | GI50 (DU-145 prostate) | TGI (DU-145 prostate) | TGI (DLD-1 colon) [µM] | also measured
O=C(Oc1cccnc1)c1ccccc1Nc1ccnc(C(F)(F)F)c1 | 0.449 µM | > 100 µM | 0.273 µM | 3.17 µM | – | –
N#Cc1ccc(Oc2nccc(-c3c(-c4ccc(F)cc4)ncn3C3CCNCC3)n2)cc1 | 13.9 µM | > 25 µM | > 25 µM | > 25 µM | – | –
CCN1CCN(CCOc2ccc(CNc3ccc4nc(CCC5CCCCC5)[nH]c4c3)cc2)CC1 | 2.02 µM | 5.89 µM | 3.91 µM | 14 µM | – | –
COc1cccc(Nc2nc(NNC(=O)Cc3ccccc3)nc(NNC(=O)c3ccncc3)n2)c1 | – | > 100 µM | > 100 µM | > 100 µM | – | GI50 (MDA-N): > 100 µM; TGI (MDA-N): > 100 µM
C=CCN1C(=O)/C(=c2\sc3n(c2=O)C2C(NN=3)N(CC)C(=O)N2CC)c2ccccc21 (configuration not stated) | 0.548 µM | > 100 µM | 0.59 µM | > 37.3 µM | – | –
CCCCCCCCCCCCCCCCOC(=O)C(C(=O)OCCCCCCCCCCCCCCCC)[N+](C)(C)CCOC(C)=O | – | – | – | – | 31.3 | TGI (DMS 273 small cell lung): 25 µM; TGI (HOP-18 NSCLC): 30.3 µM; TGI (RXF-631 renal): 30.5 µM; TGI (SNB-78 CNS): 45.7 µM
COC(=O)[C@]12CC[C@@H](C)[C@H](C)[C@@H]1C1=CC[C@@H]3[C@@]4(C)C[C@@H](OC(=O)c5ccco5)[C@H](O)[C@@](C)(CO)[C@@H]4[C@H](O)C[C@@]3(C)[C@]1(C)CC2 | 2.6 µM | 6.73 µM | 2.78 µM | 8.11 µM | – | –
Cc1ccc(-n2c3c(c4c(CN5CCCCC5)c(O)ccc42)CCc2ccccc2C3=O)cc1 | 59.2 µM | > 100 µM | > 100 µM | > 100 µM | – | –
Nc1nc(N)c2cc(CNc3ccc(Cl)c(Cl)c3)ccc2n1 | 0.412 µM | 1.89 µM | 0.68 µM | 1.93 µM | – | –
CCOC(=O)CC(=O)ON(C)C(=O)Cc1ccccc1 | – | – | – | – | > 100 | TGI (RXF-631 renal): > 100 µM; TGI (SNB-78 CNS): > 100 µM
CC1=C(C(=O)Nc2cccc(C(F)(F)F)c2)C(c2ccc(O)cc2)C(C(=O)Nc2cccc(C(F)(F)F)c2)=C(C)N1 | – | – | – | – | 73.3 | TGI (XF 498 CNS): 8.06 µM; TGI (RXF-631 renal): 41.6 µM; TGI (SNB-78 CNS): 83.2 µM
Cc1ccc2nc3c(Cl)cc(=O)cc-3sc2c1 | – | – | – | – | – | TGI (DMS 273 small cell lung): 39.3 µM; TGI (RXF-631 renal): > 100 µM; TGI (SNB-78 CNS): > 100 µM
O=C(Nc1cccc(Cl)c1)Nc1cccc(Cl)c1 | 2.54 µM | > 100 µM | – | – | – | –
COc1ccc(Nc2c3ccccc3nc3c2c2ccccc2n3C)cc1 | 11.1 µM | 54.2 µM | 15.6 µM | > 100 µM | – | –
COc1ccc(/C=C/C(=O)c2sc(N)nc2C)cc1 | – | – | – | – | > 100 | TGI (DMS 273 small cell lung): > 100 µM; TGI (HOP-18 NSCLC): > 100 µM; TGI (SNB-78 CNS): > 100 µM
N/C(=N\O)c1ncc(-c2ccc(C(F)(F)F)cc2)c(NC2CCCCCC2)n1 | 5.34 µM and 1.92 µM | 12.1 µM | 6.78 µM and 3.38 µM | 16.1 µM | – | –
Nc1nnc2nc(CC(=O)/C=C/c3ccccc3)c(=O)[nH]n12 | – | – | – | – | > 100 | TGI (DMS 273 small cell lung): > 100 µM; TGI (XF 498 CNS): > 100 µM; TGI (RXF-631 renal): > 100 µM; TGI (SNB-78 CNS): > 100 µM
COc1ccc(CN2c3ccccc3Sc3ccccc32)cc1F | 0.448 µM | > 100 µM | 0.477 µM | > 100 µM | – | –

From PubChem BioAssay (NCI)
